Columns and labels:
Sindbis virus (SV) [1] = assay: LNA flow-FISH of Sindbis virus RNA in infected cells with and without antiviral; format: cell-based
Experimental: Cells were infected with the virus of interest and harvested at various timepoints during infection. Cells were harvested and fixed with 4% paraformaldehye and 5% acetic acid in phosphate-buffered saline (PBS) for 10 min at room temperature. After fixation, the cells were washed twice in PBS and stored at 4° C. until use.
A control oligonucleotide and a specific biotinylated LNA-modified DNA oligonucleotide were used for the quantification of SV RNA. The sequences of the probes along with other relevant details are found in reference 30. The control probe is a nonspecific 22-mer oligonucleotide (nonspecific LNA) lacking complementarity to cellular nucleic acids and having a Tm of 75° C. The specific LNA probe (SV LNA), complementary to the SV RNA portion encoding the structural proteins, was also a 22-mer with a Tm of 76° C. Each had approximately one-third locked nucleic acid content.
When ready to detect the virus present in the cells at various timepoints, the cells were permeabilized with 0.1 μg/mL Proteinase K in TE buffer (pH 8.0) for 30 min at 37° C. The cells were then washed twice with PBS. A pre-hybridization step was then carried out under the same conditions as the hybridization, but without LNA probe. After pre-hybridization, a solution of 0.1× saline-sodium citrate (SSC) buffer was added followed by centrifugation and removal of the supernatant. […]
To use the LNA flow-FISH method to study the efficacy of antiviral medication, before, during, or after infection, cells were treated with an antiviral compound and left for various amounts of time. […] The change in viral nucleic acid with antiviral treatment can be quantified by taking the mean fluorescence intensity (MFI) or by examining the percent of infected cells compared to uninfected cells.
(§1) As an example, Sindbis virus (SV) was used along with Ribavirin (Rbv), an antiviral, to test the LNA flow-FISH method for studying the action and efficacy of antiviral medications. […] Samples infected with SV with and without Rbv were analyzed by LNA flow-FISH.

[2] = system: many DNA and RNA viruses including Sindbis; conditions: general statement on the nucleoside analog; cited from earlier work
Sindbis virus (SV) [3] = assay: EGFP signal of the recombinant Sindbis virus measured by flow cytometry; format: cell-based; conditions: SV-infected cells, 6-h incubation with Rbv, FIG. 4
Experimental: Sindbis virus (SV) was used to test the LNA flow-FISH method for the quantitative monitoring of a viral infection in cells. After infecting cells with SV, cells were collected at different timepoints and their mean fluorescence intensity (MFI) was measured using flow cytometry. The LNA flow-FISH technique was directly compared with a genetic recombination method of measuring viral infection—this was possible because the SV strain has an enhanced green fluorescent protein (eGFP) construct incorporated into the viral RNA. […] In addition, lysed cells were used to compare the LNA flow-FISH results with QRT-PCR.
To use the LNA flow-FISH method to study the efficacy of antiviral medication, before, during, or after infection, cells were treated with an antiviral compound and left for various amounts of time. The LNA flow-FISH method is then used as described above. The change in viral nucleic acid with antiviral treatment can be quantified by taking the mean fluorescence intensity (MFI) or by examining the percent of infected cells compared to uninfected cells.
as §1

Q: Which “viral replication (SV RNA by LNA flow-FISH)” value (Sindbis virus (SV) [1]; 6-h incubation with Rbv, FIG. 4) does the source give for NC(=O)c1ncn([C@@H]2O[C@H](CO)[C@@H](O)[C@H]2O)n1 [Rbv, Ribavirin] here?
A: reduction in viral replication

Q: What about the “mean fluorescence intensity (MFI) of samples with Rbv versus samples without antiviral” value (Sindbis virus (SV) [1]; 6 h, SV LNA flow-FISH and EGFP, FIG. 4) of the same molecule?
A: drastically lower

Q: What about the “uninfected cells in the population when Rbv present” value (Sindbis virus (SV) [1]; 6 h with Rbv) of the same molecule?
A: no uninfected cells were observed

Q: And the replication of viruses [2]?
A: inhibits the replication of many DNA and RNA viruses including Sindbis

Q: And the “viral expression (EGFP)” value (Sindbis virus (SV) [3])?
A: reduction

Source: US20120315624A1, “Using LNA Flow-Fish to Quantitatively Monitor Viral Infections in Infected Cells and Test the Efficacy of Antiviral Medications” (priority 2011, published 2012)
